Columns and labels:
[1] = target: Tyrosine-protein kinase Fyn (Homo sapiens) (UniProt P06241); conditions: Compound concentration 1000.0 nM
[2] = target: Calcium/calmodulin-dependent protein kinase type 1B (Homo sapiens) (UniProt Q6P2M8); conditions: Compound concentration 1000.0 nM
[3] = target: Cyclin-dependent kinase-like 5 (Homo sapiens) (UniProt O76039); conditions: Compound concentration 1000.0 nM
[4] = target: Serine/threonine-protein kinase PknB (Mycobacterium tuberculosis) (UniProt P9WI81); conditions: Compound concentration 1000.0 nM
[5] = target: Tyrosine-protein kinase Fer (Homo sapiens) (UniProt P16591); conditions: Compound concentration 1000.0 nM
[6] = target: Macrophage-stimulating protein receptor (Homo sapiens) (UniProt Q04912); conditions: Compound concentration 1000.0 nM
Chain of Macrophage-stimulating protein receptor (Homo sapiens) (Q04912 25-304 limits assumed): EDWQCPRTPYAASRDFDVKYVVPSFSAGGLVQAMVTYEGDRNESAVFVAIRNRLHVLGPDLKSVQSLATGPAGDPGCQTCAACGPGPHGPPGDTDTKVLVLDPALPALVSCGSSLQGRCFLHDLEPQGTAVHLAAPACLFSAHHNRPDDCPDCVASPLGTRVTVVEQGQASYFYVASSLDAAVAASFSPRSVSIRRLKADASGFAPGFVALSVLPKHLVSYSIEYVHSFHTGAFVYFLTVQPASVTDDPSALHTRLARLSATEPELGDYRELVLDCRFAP
Chain of Macrophage-stimulating protein receptor (Homo sapiens) (Q04912 310-1400 limits assumed): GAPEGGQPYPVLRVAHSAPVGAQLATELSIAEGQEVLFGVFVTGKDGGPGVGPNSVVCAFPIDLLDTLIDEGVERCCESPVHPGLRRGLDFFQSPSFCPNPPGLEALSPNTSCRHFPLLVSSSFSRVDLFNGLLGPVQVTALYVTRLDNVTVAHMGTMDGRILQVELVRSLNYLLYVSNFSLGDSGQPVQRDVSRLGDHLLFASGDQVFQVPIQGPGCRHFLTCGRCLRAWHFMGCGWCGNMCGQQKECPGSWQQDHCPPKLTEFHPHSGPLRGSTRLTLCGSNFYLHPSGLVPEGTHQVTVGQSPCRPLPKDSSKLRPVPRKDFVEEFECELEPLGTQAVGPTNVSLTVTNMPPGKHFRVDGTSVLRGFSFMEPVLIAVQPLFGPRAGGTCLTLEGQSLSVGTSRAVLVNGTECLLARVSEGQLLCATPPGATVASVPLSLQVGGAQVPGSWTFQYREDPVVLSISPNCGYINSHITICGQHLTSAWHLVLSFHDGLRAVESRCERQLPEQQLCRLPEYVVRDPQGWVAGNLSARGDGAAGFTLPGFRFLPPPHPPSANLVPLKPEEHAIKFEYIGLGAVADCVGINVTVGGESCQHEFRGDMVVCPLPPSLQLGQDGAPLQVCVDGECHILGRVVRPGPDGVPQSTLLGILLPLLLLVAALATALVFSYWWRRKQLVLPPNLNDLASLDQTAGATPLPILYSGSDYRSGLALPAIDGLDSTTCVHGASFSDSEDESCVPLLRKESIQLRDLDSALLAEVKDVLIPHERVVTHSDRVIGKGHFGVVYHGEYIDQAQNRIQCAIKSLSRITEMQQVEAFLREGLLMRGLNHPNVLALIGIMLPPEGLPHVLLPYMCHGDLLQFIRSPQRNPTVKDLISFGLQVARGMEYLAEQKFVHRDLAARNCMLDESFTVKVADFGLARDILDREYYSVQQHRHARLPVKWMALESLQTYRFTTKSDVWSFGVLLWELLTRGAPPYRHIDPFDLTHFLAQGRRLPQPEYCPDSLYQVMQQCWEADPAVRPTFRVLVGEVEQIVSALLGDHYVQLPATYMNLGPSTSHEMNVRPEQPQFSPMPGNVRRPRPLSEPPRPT

[7] = target: Sodium-dependent serotonin transporter (Homo sapiens, UniProt P31645); conditions: Compound concentration 10.0 uM
[8] = target: cGMP-dependent protein kinase 2 (Homo sapiens) (UniProt Q13237); conditions: Compound concentration 1000.0 nM
[9] = target: Myosin light chain kinase 2, skeletal/cardiac muscle (Homo sapiens) (UniProt Q9H1R3); conditions: Compound concentration 1000.0 nM
[10] = target: Histamine H1 receptor (Homo sapiens) (UniProt P35367); conditions: Compound concentration 10.0 uM
[11] = target: Serine/threonine-protein kinase PAK 5 (Homo sapiens) (UniProt Q9P286); conditions: Compound concentration 1000.0 nM
[12] = target: 5'-AMP-activated protein kinase catalytic subunit alpha-2 (Homo sapiens) (UniProt P54646); conditions: Compound concentration 1000.0 nM
[13] = target: Dual specificity protein kinase CLK4 (Homo sapiens) (UniProt Q9HAZ1); conditions: Compound concentration 1000.0 nM
Chain of Dual specificity protein kinase CLK4 (Homo sapiens) (Q9HAZ1 whole entry, looked up): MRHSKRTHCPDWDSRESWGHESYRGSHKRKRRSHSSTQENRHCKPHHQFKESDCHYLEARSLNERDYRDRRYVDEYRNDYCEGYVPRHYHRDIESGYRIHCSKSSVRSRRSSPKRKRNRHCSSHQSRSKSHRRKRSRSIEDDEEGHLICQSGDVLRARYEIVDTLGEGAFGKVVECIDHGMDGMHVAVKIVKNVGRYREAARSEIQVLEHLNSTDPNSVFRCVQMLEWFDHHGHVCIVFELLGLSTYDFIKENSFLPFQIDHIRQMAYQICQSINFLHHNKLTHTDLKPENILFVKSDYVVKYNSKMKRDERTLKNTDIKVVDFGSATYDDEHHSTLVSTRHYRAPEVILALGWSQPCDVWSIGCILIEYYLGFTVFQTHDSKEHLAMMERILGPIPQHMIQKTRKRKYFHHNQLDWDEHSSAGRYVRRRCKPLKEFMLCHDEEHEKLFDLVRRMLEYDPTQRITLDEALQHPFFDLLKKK

[14] = system: Tyrosine-protein kinase ABL1 (Homo sapiens), P00519 [Q252H]; conditions: Compound concentration 1000.0 nM
[15] = target: Serine/threonine-protein kinase RIO2 (Homo sapiens) (UniProt Q9BVS4); conditions: Compound concentration 1000.0 nM
[16] = target: Maternal embryonic leucine zipper kinase (Homo sapiens) (UniProt Q14680); conditions: Compound concentration 1000.0 nM
[17] = target: Tyrosine-protein kinase FRK (Homo sapiens) (UniProt P42685); conditions: Compound concentration 1000.0 nM
[18] = target: Casein kinase II subunit alpha' (Homo sapiens) (UniProt P19784); conditions: Compound concentration 1000.0 nM
[19] = target: Serine/threonine-protein kinase 38-like (Homo sapiens) (UniProt Q9Y2H1); conditions: Compound concentration 1000.0 nM
[20] = target: Serine/threonine-protein kinase 32C (Homo sapiens) (UniProt Q86UX6); conditions: Compound concentration 1000.0 nM
[21] = system: Phosphatidylinositol 4,5-bisphosphate 3-kinase catalytic subunit alpha isoform (Homo sapiens), P42336 [E545A]; conditions: Compound concentration 1000.0 nM
[22] = target: cAMP-dependent protein kinase catalytic subunit beta (Homo sapiens) (UniProt P22694); conditions: Compound concentration 1000.0 nM
[23] = target: Receptor-type tyrosine-protein kinase FLT3 (Homo sapiens) (UniProt P36888); conditions: Compound concentration 1000.0 nM
[24] = target: Serine/threonine-protein kinase MRCK gamma (Homo sapiens) (UniProt Q6DT37); conditions: Compound concentration 1000.0 nM
[25] = target: Mast/stem cell growth factor receptor Kit (Homo sapiens) (UniProt P10721); conditions: Compound concentration 1000.0 nM
[26] = target: 5-hydroxytryptamine receptor 6 (Homo sapiens) (UniProt P50406); conditions: Compound concentration 10.0 uM
[27] = target: Dual specificity protein kinase CLK3 (Homo sapiens) (UniProt P49761); conditions: Compound concentration 1000.0 nM
Chain of Dual specificity protein kinase CLK3 (Homo sapiens) (P49761 whole entry, looked up): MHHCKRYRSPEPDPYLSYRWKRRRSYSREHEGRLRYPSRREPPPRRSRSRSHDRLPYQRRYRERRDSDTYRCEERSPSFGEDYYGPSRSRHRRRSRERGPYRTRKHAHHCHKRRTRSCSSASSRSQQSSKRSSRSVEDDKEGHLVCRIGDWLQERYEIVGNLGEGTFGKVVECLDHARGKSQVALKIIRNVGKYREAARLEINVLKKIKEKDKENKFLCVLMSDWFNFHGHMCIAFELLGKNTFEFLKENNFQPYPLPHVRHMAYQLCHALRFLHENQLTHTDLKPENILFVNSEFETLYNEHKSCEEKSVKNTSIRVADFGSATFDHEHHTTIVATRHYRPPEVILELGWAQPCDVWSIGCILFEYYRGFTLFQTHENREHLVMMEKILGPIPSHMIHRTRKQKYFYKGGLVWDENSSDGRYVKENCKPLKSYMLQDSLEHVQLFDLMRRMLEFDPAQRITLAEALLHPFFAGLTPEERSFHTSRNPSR

[28] = system: Epidermal growth factor receptor (Homo sapiens), P00533 [T790M]; conditions: Compound concentration 1000.0 nM
[29] = target: Casein kinase I isoform delta (Homo sapiens) (UniProt P48730); conditions: Compound concentration 1000.0 nM
[30] = target: Serine/threonine-protein kinase 32A (Homo sapiens) (UniProt Q8WU08); conditions: Compound concentration 1000.0 nM
[31] = target: Ankyrin repeat and protein kinase domain-containing protein 1 (Homo sapiens) (UniProt Q8NFD2); conditions: Compound concentration 1000.0 nM
[32] = target: Epidermal growth factor receptor (Homo sapiens, UniProt P00533); conditions: Compound concentration 1000.0 nM
[33] = target: Serine/threonine-protein kinase Nek10 (Homo sapiens) (UniProt Q6ZWH5); conditions: Compound concentration 1000.0 nM
[34] = target: Tyrosine-protein kinase Lyn (Homo sapiens) (UniProt P07948); conditions: Compound concentration 1000.0 nM
[35] = target: Ribosomal protein S6 kinase alpha-1 (Homo sapiens) (UniProt Q15418); conditions: Compound concentration 1000.0 nM
Chain of Ribosomal protein S6 kinase alpha-1 (Homo sapiens) (Q15418 whole entry): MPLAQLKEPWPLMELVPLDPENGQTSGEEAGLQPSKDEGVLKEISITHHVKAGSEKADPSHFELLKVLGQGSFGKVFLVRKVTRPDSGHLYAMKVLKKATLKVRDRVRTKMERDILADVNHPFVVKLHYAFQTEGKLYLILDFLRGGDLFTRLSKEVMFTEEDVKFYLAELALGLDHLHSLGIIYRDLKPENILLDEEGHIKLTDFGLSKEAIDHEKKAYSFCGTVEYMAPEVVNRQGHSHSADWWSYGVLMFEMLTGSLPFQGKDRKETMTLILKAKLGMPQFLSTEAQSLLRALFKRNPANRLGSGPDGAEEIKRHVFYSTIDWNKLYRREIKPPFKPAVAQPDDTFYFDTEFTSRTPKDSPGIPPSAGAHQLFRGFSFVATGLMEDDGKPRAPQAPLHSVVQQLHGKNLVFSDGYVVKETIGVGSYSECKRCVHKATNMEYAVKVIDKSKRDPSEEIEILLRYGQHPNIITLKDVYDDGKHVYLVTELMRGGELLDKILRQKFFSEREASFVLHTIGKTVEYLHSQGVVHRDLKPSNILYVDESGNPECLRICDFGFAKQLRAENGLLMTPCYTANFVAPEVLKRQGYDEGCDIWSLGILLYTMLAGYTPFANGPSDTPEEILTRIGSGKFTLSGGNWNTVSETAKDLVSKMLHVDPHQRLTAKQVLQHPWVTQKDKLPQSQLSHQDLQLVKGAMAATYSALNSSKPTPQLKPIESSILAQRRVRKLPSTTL

[36] = target: Mitogen-activated protein kinase kinase kinase kinase 2 (Homo sapiens) (UniProt Q12851); conditions: Compound concentration 1000.0 nM
[37] = system: Phosphatidylinositol 4,5-bisphosphate 3-kinase catalytic subunit alpha isoform (Homo sapiens), P42336 [E542K]; conditions: Compound concentration 1000.0 nM
Chain of Phosphatidylinositol 4,5-bisphosphate 3-kinase catalytic subunit alpha isoform (Homo sapiens), P42336 [E542K] (P42336 whole entry E542K, canonical isoform): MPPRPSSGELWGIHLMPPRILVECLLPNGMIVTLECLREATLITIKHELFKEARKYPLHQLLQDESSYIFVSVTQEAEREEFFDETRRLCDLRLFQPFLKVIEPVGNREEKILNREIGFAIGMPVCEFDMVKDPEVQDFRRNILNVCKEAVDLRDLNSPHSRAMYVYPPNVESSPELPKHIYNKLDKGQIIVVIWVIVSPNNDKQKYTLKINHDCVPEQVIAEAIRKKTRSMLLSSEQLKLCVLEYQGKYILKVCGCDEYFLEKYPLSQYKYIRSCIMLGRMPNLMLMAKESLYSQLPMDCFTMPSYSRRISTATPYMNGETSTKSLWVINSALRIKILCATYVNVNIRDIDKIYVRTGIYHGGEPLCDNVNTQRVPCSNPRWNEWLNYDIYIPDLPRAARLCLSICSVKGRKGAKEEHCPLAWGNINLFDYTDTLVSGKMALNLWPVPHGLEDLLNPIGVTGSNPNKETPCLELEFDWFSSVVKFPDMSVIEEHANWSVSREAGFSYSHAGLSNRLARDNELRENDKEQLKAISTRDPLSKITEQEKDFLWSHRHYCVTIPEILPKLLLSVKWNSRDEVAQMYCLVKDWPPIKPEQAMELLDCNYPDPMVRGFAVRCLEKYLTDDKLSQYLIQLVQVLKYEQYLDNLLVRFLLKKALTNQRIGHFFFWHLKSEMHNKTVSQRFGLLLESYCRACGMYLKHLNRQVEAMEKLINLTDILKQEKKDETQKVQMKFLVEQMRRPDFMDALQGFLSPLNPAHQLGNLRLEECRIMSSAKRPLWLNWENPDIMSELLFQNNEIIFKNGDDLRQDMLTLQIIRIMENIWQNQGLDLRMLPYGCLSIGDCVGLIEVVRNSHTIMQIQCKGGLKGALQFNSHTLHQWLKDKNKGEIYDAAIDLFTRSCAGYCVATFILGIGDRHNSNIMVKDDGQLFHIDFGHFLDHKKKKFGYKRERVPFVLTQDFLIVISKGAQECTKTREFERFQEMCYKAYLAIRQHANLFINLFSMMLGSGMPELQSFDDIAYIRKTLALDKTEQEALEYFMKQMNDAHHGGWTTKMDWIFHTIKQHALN

[38] = target: Cyclin-dependent kinase 13 (Homo sapiens) (UniProt Q14004); conditions: Compound concentration 1000.0 nM
[39] = target: Tyrosine-protein kinase receptor TYRO3 (Homo sapiens) (UniProt Q06418); conditions: Compound concentration 1000.0 nM
[40] = system: Tyrosine-protein kinase ABL1 (Homo sapiens), P00519 [E255K]; conditions: Compound concentration 1000.0 nM
[41] = target: Mitogen-activated protein kinase 14 (Homo sapiens, UniProt Q16539); conditions: Compound concentration 1000.0 nM
[42] = target: Serine/threonine-protein kinase LATS2 (Homo sapiens) (UniProt Q9NRM7); conditions: Compound concentration 1000.0 nM
[43] = target: Proto-oncogene tyrosine-protein kinase Src (Homo sapiens) (UniProt P12931); conditions: Compound concentration 1000.0 nM
[44] = target: Mitogen-activated protein kinase kinase kinase 20 (Homo sapiens) (UniProt Q9NYL2); conditions: Compound concentration 1000.0 nM
Chain of Mitogen-activated protein kinase kinase kinase 20 (Homo sapiens) (Q9NYL2 2-800 limits assumed): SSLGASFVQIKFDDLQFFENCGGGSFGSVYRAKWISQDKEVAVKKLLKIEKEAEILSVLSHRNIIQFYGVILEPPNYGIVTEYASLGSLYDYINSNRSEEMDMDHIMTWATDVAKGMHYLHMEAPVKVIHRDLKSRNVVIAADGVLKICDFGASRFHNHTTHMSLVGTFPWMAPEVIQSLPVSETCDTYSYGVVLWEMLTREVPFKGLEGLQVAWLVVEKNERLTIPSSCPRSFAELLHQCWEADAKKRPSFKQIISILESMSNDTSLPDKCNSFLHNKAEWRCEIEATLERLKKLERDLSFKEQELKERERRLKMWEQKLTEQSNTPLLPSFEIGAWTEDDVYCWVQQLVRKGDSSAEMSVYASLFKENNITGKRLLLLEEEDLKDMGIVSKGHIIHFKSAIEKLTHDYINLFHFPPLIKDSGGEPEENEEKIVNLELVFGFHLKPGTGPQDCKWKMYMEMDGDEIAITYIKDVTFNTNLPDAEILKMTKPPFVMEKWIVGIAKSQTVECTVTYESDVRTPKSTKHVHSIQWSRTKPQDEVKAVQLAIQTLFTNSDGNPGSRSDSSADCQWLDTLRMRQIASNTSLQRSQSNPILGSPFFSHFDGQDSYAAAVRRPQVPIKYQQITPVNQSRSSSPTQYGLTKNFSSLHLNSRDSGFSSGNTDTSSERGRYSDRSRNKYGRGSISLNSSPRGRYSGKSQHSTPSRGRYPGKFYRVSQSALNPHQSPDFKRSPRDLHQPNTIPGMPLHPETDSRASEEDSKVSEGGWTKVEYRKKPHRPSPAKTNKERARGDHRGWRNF

[45] = target: Wee1-like protein kinase (Homo sapiens) (UniProt P30291); conditions: Compound concentration 1000.0 nM

Cc1c(C(=O)O)cc(-c2ccc(C3CCNCC3)cc2)c2ccc(-c3ccc(C(F)(F)F)cc3)cc12 [PPTN-NC]
inactive: residual activity [1] 100% | residual activity [2] 100% | residual activity [3] 100% | residual activity [4] 100% | residual activity [5] 100% | residual activity [6] 100% | inhibition [7] -7.91% | residual activity [8] 71% | residual activity [9] 100% | inhibition [10] 12.6% | residual activity [11] 98% | residual activity [12] 100% | residual activity [13] 100% | residual activity [14] 100% | residual activity [15] 100% | residual activity [16] 100% | residual activity [17] 100% | residual activity [18] 100% | residual activity [19] 100% | residual activity [20] 100% | residual activity [21] 100% | residual activity [22] 84% | residual activity [23] 100% | residual activity [24] 100% | residual activity [25] 84% | inhibition [26] 13.5% | residual activity [27] 100% | residual activity [28] 87% | residual activity [29] 100% | residual activity [30] 89% | residual activity [31] 100% | residual activity [32] 100% | residual activity [33] 100% | residual activity [34] 90% | residual activity [35] 100% | residual activity [36] 100% | residual activity [37] 99% | residual activity [38] 100% | residual activity [39] 100% | residual activity [40] 96% | residual activity [41] 100% | residual activity [42] 100% | residual activity [43] 100% | residual activity [44] 100% | residual activity [45] 80%

O=C(O)c1cc(-c2ccc(C3CCNCC3)cc2)c2ccc(-c3ccc(C(F)(F)F)cc3)cc2c1 [PPTN]
inactive: residual activity [1] 100% | residual activity [2] 100% | residual activity [3] 100% | residual activity [4] 100% | residual activity [5] 100% | residual activity [6] 100% | inhibition [7] -2.04% | residual activity [8] 79% | residual activity [9] 100% | inhibition [10] 21.6% | residual activity [11] 100% | residual activity [12] 100% | residual activity [13] 100% | residual activity [14] 90% | residual activity [15] 100% | residual activity [16] 98% | residual activity [17] 100% | residual activity [18] 100% | residual activity [19] 100% | residual activity [20] 100% | residual activity [21] 87% | residual activity [22] 100% | residual activity [23] 90% | residual activity [24] 100% | residual activity [25] 99% | inhibition [26] 5.62% | residual activity [27] 100% | residual activity [28] 96% | residual activity [29] 100% | residual activity [30] 100% | residual activity [31] 100% | residual activity [32] 100% | residual activity [33] 100% | residual activity [34] 100% | residual activity [35] 100% | residual activity [36] 100% | residual activity [37] 100% | residual activity [38] 100% | residual activity [39] 100% | residual activity [40] 87% | residual activity [41] 100% | residual activity [42] 100% | residual activity [43] 100% | residual activity [44] 100% | residual activity [45] 98%
